Assay [1] has as its system NCI-N87 (Human Gastric Cancer Cell). As to the kind of experiment: Bioactivity detection of NCI-N87 cell growth inhibition (CellTiter-Glo). Format: cell-based. The note with it: NCI-N87 cells, 72 hours, highest concentration 10 μM, read-out: N87 CTG IC50. As for the experimental part: This detection method is used to evaluate the biological activity of the compounds described in this disclosure at the cellular level.
(§1) NCI-N87 cells (purchased from the Chinese Academy of Sciences) were harvested, resuspended in complete medium and adjusted to a cell density of 0.1×10^6 cells per ml. The cell suspension was added to a 96-well plate at a volume of 100 μL per well and cultured overnight in a 37° C., 5% CO2 incubator. Prepare the test compound and add it to the cell plate so that the highest concentration of the compound is 10 μM. Set 8 concentration points according to 3-fold dilution. At the same time, 100% inhibition control wells were set, that is, wells with no cells but only an equal volume of complete culture medium; and 0% inhibition control wells, that is, wells with cells added with 0.1% DMSO. The cell plate was cultured at 37° C. and 5% CO2 for 72 hours. Remove the cell culture plate and add 25 μl CellTiter-Glo Luminescent Cell Viability Reagent (promega cat #G7573) to each well. Incubate in the dark for 10 minutes and then transfer 100 μL to a white plate and use Molecular Devices SpectraMax i3 to detect chemiluminescence. The inhibition rate was calculated using the following formula for data processing: compound inhibition rate=(0% inhibition control well signal−compound treatment well signal)/(0% inhibition control well signal−100% inhibition control well signal)*10000. The calculated data were fitted with four parameters using GraphPad Prism software and the corresponding IC50 was calculated.

The subject of assay [2] is HGC27 (Human Gastric Cancer Cell). In words: Bioactivity assay for HGC27 cell growth inhibition (CellTiter-Glo). Format: cell-based. The note with it: read-out: HGC27 CTG IC50. As for the experimental part: This detection method is used to evaluate the biological activity of the compounds of the present disclosure at the cellular level.
as §1, with “HGC27” for “NCI-N87”, “0.2×10^6” for “0.1×10^6”, “24” for “72”, “CellTiter-Glo®” for “CellTiter-Glo”, “signal)*100%.” for “signal)*10000.”

[3] abbreviates: HGC-27, HGC27 cells, 24 hours, CellTiter-Glo, highest concentration 10 μM.

Where two headings read alike, the source gives them in different places.

As usually defined, the IC50 is the midpoint of a concentration-inhibition curve.

On to `FC(F)(F)c1cnc(NCc2ccc3c(c2)[nH]c2cccnc23)nc1OC1COC1` [Compound 2], for which the IC50 in assay [1] was 0.026 µM; in assay [2] (setting [3]) it was 0.139 µM.

As for `Cn1c2cc(CNc3ncc(C(F)(F)F)c(OC4COC4)n3)ccc2c2ncccc21` [Compound 3], the IC50 in assay [2] (setting [3]) is 0.342 µM.

With `CC[C@@H](Nc1nc(NCc2ccc3c(c2)[nH]c2cccnc23)ncc1C(F)(F)F)C(N)=O` [Compound 4], the IC50 in assay [2] (setting [3]) was found to be 0.238 µM. With `C[C@@H](O)[C@@H](CO)Nc1nc(NCc2ccc3c(c2)[nH]c2cccnc23)ncc1C(F)(F)F` [Compound 5], the IC50 in assay [2] (setting [3]) worked out at 0.03 µM.

Turning to `Cc1ccnc2c1[nH]c1cc(CNc3ncc(C(F)(F)F)c(OC4COC4)n3)ccc12` [Compound 6], the IC50 in assay [2] (setting [3]) turned out to be 0.145 µM. In the case of `OCc1ccnc2c1[nH]c1cc(CNc3ncc(C(F)(F)F)c(OC4COC4)n3)ccc12` [Compound 7], the IC50 in assay [2] (setting [3]) was 0.043 µM. Same read-out and setting: for `Cc1ccc2[nH]c3cc(CNc4ncc(C(F)(F)F)c(OC5COC5)n4)ccc3c2n1` [Compound 8] the value was 0.308 µM. `FC(F)(F)c1cnc(NCc2ccc3c(c2)oc2cccnc23)nc1OC1COC1` [Compound 9]: the IC50 in assay [2] (setting [3]) was found to be 0.292 µM. In the case of `FC(F)(F)c1cnc(NCc2ccc3c(n2)[nH]c2cccnc23)nc1OC1COC1` [Compound 10], the IC50 in assay [2] (setting [3]) was determined as 0.225 µM. In the case of `C[C@@H](O)[C@@H](C)Oc1nc(NCc2ccc3c(c2)[nH]c2cccnc23)ncc1C(F)(F)F` [Compound 11], in assay [2] (setting [3]), the IC50 was found to be 0.062 µM. `C[C@@H](O)[C@@H](CO)Nc1nc(NCc2ccc3c(c2)[nH]c2c(CO)ccnc23)ncc1C(F)(F)F` [Compound 13]: the IC50 in assay [1] was found to be 0.013 µM; in assay [2] (setting [3]), 0.041 µM.

Consider `FC(F)(F)c1cnc(NCc2ccc3c(c2)[nH]c2ncsc23)nc1OC1COC1` [Compound 14], for which the concentration for half-maximal inhibition (IC50) in assay [2] (setting [3]) came to 0.075 µM. For `Cc1cc2c(cc1CNc1ncc(C(F)(F)F)c(OC3COC3)n1)[nH]c1cccnc12` [Compound 16], the IC50 in assay [2] (setting [3]) amounted to 0.52 µM. Regarding `NCc1ccnc2c1[nH]c1cc(CNc3ncc(C(F)(F)F)c(OC4COC4)n3)ccc12` [Compound 19], in assay [2] (setting [3]), the IC50 is 0.062 µM. As to `FC(F)(F)c1cnc(NCc2cc3[nH]c4cccnc4c3s2)nc1OC1COC1` [Compound 20], in assay [2] (setting [3]), the IC50 was 0.454 µM. Consider `CC[C@@H](Nc1nc(NCc2ccc3c(c2)[nH]c2c(CO)ccnc23)ncc1C(F)(F)F)[C@@H](C)O` [Compound 23], for which, in assay [2] (setting [3]), the 50% inhibitory concentration (IC50) was 0.013 µM. As for `N#Cc1cccc2c3ccc(CNc4ncc(C(F)(F)F)c(OC5COC5)n4)cc3nn12` [Compound 24], the IC50 in assay [2] (setting [3]) came to 0.08 µM.

In the case of `OCc1cccc2c3ccc(CNc4ncc(C(F)(F)F)c(OC5COC5)n4)cc3nn12` [Compound 26], in assay [2] (setting [3]), the IC50 was determined as 0.387 µM.

Take `C[C@@H](O)[C@@H](C)Oc1nc(NCc2ccc3c(c2)[nH]c2c(CN)ccnc23)ncc1C(F)(F)F` [Compound 27]: in assay [2] (setting [3]), the IC50 is 0.021 µM. For `NCc1cccc2c3ccc(CNc4ncc(C(F)(F)F)c(OC5COC5)n4)cc3nn12` [Compound 28], the IC50 in assay [2] (setting [3]) came to 0.313 µM. For `FC(F)(F)c1cnc(NCc2ccc3c(c2)[nH]c2scnc23)nc1OC1COC1` [Compound 29], in assay [2] (setting [3]), the IC50 was determined as 0.374 µM. For `CC[C@@H](Nc1nc(NCc2ccc3c(c2)[nH]c2c(CN)ccnc23)ncc1C(F)(F)F)C(N)=O` [Compound 33], the IC50 in assay [1] turned out to be 0.01 µM; in assay [2] (setting [3]) it was 0.032 µM. With `C[C@@H](O)[C@@H](C)Nc1nc(NCc2ccc3c(c2)[nH]c2c(CN)ccnc23)ncc1C(F)(F)F` [Compound 34], the IC50 in assay [1] was determined as 0.0017 µM; in assay [2] (setting [3]), 0.007 µM.

In the case of `COc1ccnc2c1[nH]c1cc(CNc3ncc(C(F)(F)F)c(OC4COC4)n3)ccc12` [Compound 35], the IC50 in assay [2] (setting [3]) was found to be 0.12 µM.

As for `FC(F)(F)c1cnc(NCc2ccc3c(c2)nn2cccnc32)nc1OC1COC1` [Compound 36], the concentration for half-maximal inhibition (IC50) in assay [2] (HGC-27, 24 h) worked out at 0.133 µM. In the case of `OCc1ccnc2c3ccc(CNc4ncc(C(F)(F)F)c(OC5COC5)n4)cc3nn12` [Compound 39], the IC50 in assay [1] turned out to be 0.009 µM; in assay [2] (setting [3]) it was 0.054 µM. On to `CC[C@@H](Nc1nc(NCc2ccc3c(c2)nn2c(CO)ccnc32)ncc1C(F)(F)F)C(N)=O` [Compound 40], for which the IC50 in assay [1] amounted to 0.007 µM; in assay [2] (setting [3]), 0.121 µM. On to `NCc1ccnc2c1[nH]c1cc(CNc3ncc(C(F)(F)F)c(N[C@@H](C(N)=O)C4CC4)n3)ccc12` [Compound 42], for which the 50% inhibitory concentration (IC50) in assay [1] is 0.013 µM; in assay [2] (setting [3]), 0.02 µM. Regarding `FC(F)(F)c1cnc(NCc2ccc3c(c2)[nH]c2ncccc23)nc1OC1COC1` [Compound 45], the IC50 in assay [2] (setting [3]) came to 0.089 µM.

`C[C@@H](Nc1nc(NCc2ccc3c(c2)[nH]c2c(CO)ccnc23)ncc1C(F)(F)F)C(N)=O` [Compound 46]: the IC50 in assay [2] (setting [3]) is 0.079 µM. In the case of `CC[C@@H](Nc1nc(NCc2ccc3c(c2)[nH]c2c(CNC(C)=O)ccnc23)ncc1C(F)(F)F)C(N)=O` [Compound 47], in assay [2] (setting [3]), the IC50 was determined as 0.266 µM. In the case of `CC(C)[C@@H](Nc1nc(NCc2ccc3c(c2)[nH]c2c(CN)ccnc23)ncc1C(F)(F)F)C(N)=O` [Compound 48], the values for the IC50 in assay [1] and in assay [2] (setting [3]) were 0.02 µM and 0.053 µM, respectively. For the compound `FC(F)(F)c1cnc(NCc2ccc3c(c2)nn2ccncc32)nc1OC1COC1` [Compound 49], the IC50 in assay [2] (HGC-27, 24 h) turned out to be 0.51 µM. Consider `CC(C)[C@@H](Nc1nc(NCc2ccc3c(c2)nn2c(CO)ccnc32)ncc1C(F)(F)F)C(N)=O` [Compound 50], for which, in assay [2] (setting [3]), the IC50 came to 0.257 µM. The same measure, in the same setting: under `FC(F)(F)c1cnc(NCc2ccc3c(c2)nc2cccnn23)nc1OC1COC1` [Compound 51] stands 0.145 µM.

In the case of `NCc1ccnc2c1[nH]c1cc(CNc3ncc(C(F)(F)F)c(N[C@@H](C(N)=O)C4CCCC4)n3)ccc12` [Compound 52], the IC50 in assay [1] came to 0.032 µM; in assay [2] (setting [3]), 0.039 µM. Turning to `NCc1ccnc2c1[nH]c1cc(CNc3ncc(C(F)(F)F)c(N[C@H](CC4CC4)C(N)=O)n3)ccc12` [Compound 53], the IC50 in assay [1] was determined as 0.048 µM; in assay [2] (setting [3]) it was 0.029 µM. On to `CCC[C@@H](Nc1nc(NCc2ccc3c(c2)[nH]c2c(CN)ccnc23)ncc1C(F)(F)F)C(N)=O` [Compound 54], for which the IC50 in assay [1] and in assay [2] (setting [3]) was 0.032 µM throughout. With `CC(C)(C)[C@@H](Nc1nc(NCc2ccc3c(c2)[nH]c2c(CN)ccnc23)ncc1C(F)(F)F)C(N)=O` [Compound 55], the IC50 in assay [1] came out at 0.019 µM; in assay [2] (HGC-27, 24 h), 0.026 µM.

On to `NCc1ccnc2c1[nH]c1cc(CNc3ncc(C(F)(F)F)c(N[C@@H](C(N)=O)C4CCC4)n3)ccc12` [Compound 56], for which the values for the IC50 in assay [1] and in assay [2] (setting [3]) were 0.03 µM and 0.025 µM, respectively. For the compound `CO[C@@H](C)[C@@H](Nc1nc(NCc2ccc3c(c2)[nH]c2c(CN)ccnc23)ncc1C(F)(F)F)C(N)=O` [Compound 57], the IC50 turned out to be 0.011 µM in assay [1] and 0.014 µM in assay [2] (setting [3]). Turning to `CC(C)(O)[C@@H](Nc1nc(NCc2ccc3c(c2)[nH]c2c(CN)ccnc23)ncc1C(F)(F)F)C(N)=O` [Compound 58], the half-maximal inhibitory concentration (IC50) worked out at 0.058 µM in assay [1] and 0.114 µM in assay [2] (setting [3]). Regarding `C[C@@H](O)[C@@H](C)Nc1nc(NCc2ccc3c(c2)nn2c(CO)ccnc32)ncc1C(F)(F)F` [Compound 60], the IC50 in assay [1] turned out to be 0.0018 µM; in assay [2] (setting [3]) it was 0.013 µM. In the case of `CC[C@@H](Nc1nc(NCc2ccc3c(c2)nn2c(CN)ccnc32)ncc1C(F)(F)F)C(N)=O` [Compound 62], the figures for the half-maximal inhibitory concentration (IC50) in assay [1] and in assay [2] (setting [3]) were 0.048 µM and 0.07 µM, respectively. For the compound `C[C@@H](O)[C@@H](C)Nc1nc(NCc2ccc3c(c2)nn2c(CN)ccnc32)ncc1C(F)(F)F` [Compound 63], the IC50 in assay [1] came to 0.015 µM; in assay [2] (setting [3]), 0.02 µM.

On to `N#Cc1ccnc2c1[nH]c1cc(CNc3ncc(C(F)(F)F)c(N[C@@H]4CN(C(=O)CO)CC[C@@H]4O)n3)ccc12` [Compound 92], for which the IC50 in assay [2] (setting [3]) turned out to be 0.048 µM. With `N#Cc1ccnc2c3ccc(CNc4ncc(C(F)(F)F)c(N[C@@H]5CNCC[C@@H]5O)n4)cc3nn12` [Compound 96], the half-inhibitory concentration (IC50) in assay [2] (setting [3]) was 0.11 µM. With `CC[C@@H](Nc1nc(NCc2ccc3c(c2)[nH]c2c(CO)ccnc23)ncc1C(F)(F)F)C(=O)NC` [Compound 99], the IC50 in assay [1] is 0.117 µM. Still for that read-out and setting: for `CC[C@@H](Nc1nc(NCc2ccc3c(c2)[nH]c2c(CO)ccnc23)ncc1C(F)(F)F)C(=O)N(C)C` [Compound 100] the value was 0.112 µM.

The values above are taken from patent publication US20260209211A1, “CYCLIN K DEGRADER AND USE THEREOF” (ADLAI NORTYE BIOPHARMA CO., LTD., priority 2022, published 2026).
